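A five-concentration, 48-hour dose response in 96-well plates underlies each endpoint, interpolated linearly between surrounding concentrations. GI50 = concentration required for 50% inhibition of growth.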 Active and inactive are the calls of the source. No stated cut-off is given here; in the data, active = GI50 up to about 1.1 µM and inactive = higher.

11 compounds from ChEMBL document CHEMBL1201862, “PubChem BioAssay data set” (2004) can be followed below.

Among the test systems are IGROV-1; SK-MEL-2; OVCAR-8; LOX IMVI; A498; ACHN; CCRF-CEM; OVCAR-3; HCT-116; A549; KM12; HOP-62; UACC-62; M14; K562; T47D; SNB-75; HL-60; NCI-H460.
Holding throughout (assay): growth of human tumour cells (NCI), 48 h

Take `CC12CCC(=O)C=C1CCC1C2C(O)CC2(C)C(c3csc(N)n3)CCC12.O=S(=O)(O)c1ccc(Br)cc1` (centres undefined): the GI50 in the assay on IGROV-1, with SK-MEL-2, in the assay on OVCAR-8, in the assay on LOX IMVI, in the assay on A498 and in the assay with ACHN was > 100 µM (inactive) each time. The GI50 in the assay on CCRF-CEM was < 0.01 µM (active); in the assay with OVCAR-3, > 100 µM (inactive); in the assay with HCT-116 it was > 100 µM (inactive); in the assay on A549 it was > 100 µM (inactive); in the assay with KM12 it was > 100 µM (inactive); in the assay on HOP-62, > 100 µM (inactive). Besides, the GI50 in the assay on UACC-62, in the assay on M14, with K562, in the assay on T47D and with SNB-75 was > 100 µM (inactive) each time.
Take `CC(=O)Oc1ccc2c3c1O[C@H]1[C@H](O)CC[C@@]4(O)[C@@H](C2)N(C)CC[C@]314`: the GI50 with HL-60, in the assay with IGROV-1, in the assay on SK-MEL-2, in the assay with OVCAR-8, in the assay with LOX IMVI and in the assay on A498 was > 100 µM (inactive) each time. The GI50 in the assay on ACHN, in the assay with OVCAR-3, with HCT-116, in the assay with A549, with KM12 and in the assay on HOP-62 was > 100 µM (inactive) in each case. In addition, the GI50 in the assay with UACC-62, with M14 and with T47D was > 100 µM (inactive) in each case.
`C=C1CC(OC(C)=O)/C=C(/C)CCC(C(C)(C)O)CC1O` (centres undefined): the GI50 in the assay with HL-60, in the assay on IGROV-1, in the assay on SK-MEL-2, with NCI-H460, with OVCAR-8 and in the assay with LOX IMVI was > 100 µM (inactive) in each case. The GI50 in the assay on A498, in the assay with ACHN, in the assay with CCRF-CEM, in the assay with OVCAR-3, in the assay on HCT-116 and in the assay on A549 was > 100 µM (inactive) in each case. The GI50 with KM12, in the assay with HOP-62, in the assay on UACC-62, in the assay with M14 and with T47D was > 100 µM (inactive) throughout.
On to `O=c1oc2ccc([N+](=O)[O-])cc2cc1Br`, for which the GI50 in the assay with HL-60 was 39 µM (inactive); in the assay on IGROV-1, > 100 µM (inactive); in the assay on SK-MEL-2 it was > 100 µM (inactive); with NCI-H460, > 100 µM (inactive); in the assay on OVCAR-8 it was > 100 µM (inactive); in the assay on LOX IMVI, 61.2 µM (inactive). Further, the GI50 was > 100 µM (inactive) in the assay on A498; 78.5 µM (inactive) in the assay on ACHN; 57.5 µM (inactive) in the assay with CCRF-CEM; > 100 µM (inactive) in the assay with OVCAR-3; > 100 µM (inactive) with HCT-116; > 100 µM (inactive) with A549. The GI50 in the assay on KM12 is > 100 µM (inactive); in the assay on HOP-62, 71.6 µM (inactive); in the assay on UACC-62 it was 31.6 µM (inactive); in the assay on M14, 35.7 µM (inactive); with K562, > 100 µM (inactive); in the assay on T47D, 70.6 µM (inactive).
On to `N/N=C(\N)Nc1cccc2ccccc12`, for which the GI50 is > 100 µM (inactive) in the assay with HL-60; > 100 µM (inactive) in the assay with IGROV-1; > 100 µM (inactive) in the assay with NCI-H460; > 100 µM (inactive) with OVCAR-8; 33.3 µM (inactive) in the assay on A498; > 100 µM (inactive) in the assay on ACHN. Besides, the GI50 in the assay with CCRF-CEM, in the assay with HCT-116, in the assay on A549, in the assay on KM12, in the assay on HOP-62 and in the assay on UACC-62 was > 100 µM (inactive) each time. Also, the GI50 in the assay on M14, with K562, with T47D and with SNB-75 was > 100 µM (inactive) in each case.
As for `CCOC(=O)/C=C1\Nc2ccccc2C12CCc1c([nH]c3ccccc13)C2C(=O)OCC` (centres undefined), the GI50 is 26.1 µM (inactive) in the assay with HL-60; 8.59 µM (inactive) in the assay on IGROV-1; 45.5 µM (inactive) in the assay with SK-MEL-2; 12 µM (inactive) in the assay on NCI-H460; 88.7 µM (inactive) with OVCAR-8; 39.2 µM (inactive) in the assay with LOX IMVI. Also, the GI50 is 30.1 µM (inactive) with A498; 49.2 µM (inactive) in the assay with ACHN; 29 µM (inactive) in the assay on CCRF-CEM; 44.2 µM (inactive) in the assay with OVCAR-3; 17.6 µM (inactive) in the assay with HCT-116; 29.7 µM (inactive) in the assay on A549. Moreover, the GI50 in the assay with KM12 was 20.5 µM (inactive); in the assay on HOP-62, > 100 µM (inactive); with UACC-62, 59.3 µM (inactive); with M14 it was 25.2 µM (inactive); in the assay with K562, 48.4 µM (inactive); with T47D, 61.2 µM (inactive).
Turning to `COc1cc(COC(=O)N2CCC2C(=O)O)c([N+](=O)[O-])cc1OC` (centres undefined), the GI50 in the assay on HL-60, in the assay with IGROV-1, in the assay with NCI-H460, in the assay with OVCAR-8, with A498 and in the assay with ACHN was > 100 µM (inactive) throughout. Moreover, the GI50 in the assay on CCRF-CEM, with OVCAR-3, with HCT-116, with A549, in the assay with KM12 and with HOP-62 was > 100 µM (inactive) each time. The GI50 in the assay on UACC-62, with M14, in the assay with K562, with T47D and in the assay with SNB-75 was > 100 µM (inactive) each time.
For the compound `CN(C(=O)[C@H](NC(=O)OCc1ccccc1)c1ccccc1)C1CCCCC1N1CCCC1` (some centres undefined), the GI50 in the assay with IGROV-1 was 70.3 µM (inactive); in the assay with SK-MEL-2, > 100 µM (inactive); with NCI-H460, 40.6 µM (inactive); in the assay on OVCAR-8, > 100 µM (inactive); in the assay on LOX IMVI it was 77.6 µM (inactive); with A498, 89.9 µM (inactive). Also, the GI50 in the assay with ACHN is > 100 µM (inactive); in the assay with CCRF-CEM it was 38.8 µM (inactive); in the assay on OVCAR-3 it was > 100 µM (inactive); with HCT-116, 69.2 µM (inactive); with A549, > 100 µM (inactive); in the assay with KM12, > 100 µM (inactive). For the same compound, the GI50 in the assay with HOP-62 was > 100 µM (inactive); with UACC-62 it was > 100 µM (inactive); with M14, 23.4 µM (inactive); in the assay with K562, 29 µM (inactive); with T47D it was > 100 µM (inactive); with SNB-75, 97.3 µM (inactive).
Consider `O=C(O)C1C2CC3C(OC(=O)C31)C2Br` (centres undefined), for which the GI50 in the assay on IGROV-1, in the assay with SK-MEL-2, with NCI-H460, in the assay on OVCAR-8, with LOX IMVI and with A498 was > 100 µM (inactive) in each case. In addition, the GI50 in the assay on ACHN, with CCRF-CEM, in the assay with OVCAR-3, with HCT-116, in the assay with A549 and with KM12 was > 100 µM (inactive) each time. For the same compound, the GI50 in the assay on HOP-62 is > 100 µM (inactive); in the assay with UACC-62, > 100 µM (inactive); in the assay on M14 it was > 100 µM (inactive); in the assay with K562, > 47.8 µM (inactive); with T47D, > 100 µM (inactive); in the assay with SNB-75, > 100 µM (inactive).
For the compound `CC(=O)O[C@H]1CC[C@@]2(C)C(=CC[C@@H]3[C@@H]2CC[C@]2(C)c4nc(Cl)ccc4C[C@@H]32)C1`, the GI50 is 33.8 µM (inactive) in the assay with HL-60; 89.9 µM (inactive) in the assay with IGROV-1; 33.4 µM (inactive) with NCI-H460; 37.2 µM (inactive) with OVCAR-8; 40.9 µM (inactive) with LOX IMVI; 87.3 µM (inactive) with A498. Further, the GI50 with ACHN is 33.7 µM (inactive); in the assay on CCRF-CEM, 20.6 µM (inactive); in the assay on OVCAR-3 it was 27.9 µM (inactive); in the assay on HCT-116, 32.6 µM (inactive); in the assay with A549, 52 µM (inactive); with KM12, 43.3 µM (inactive). Besides, the GI50 in the assay with HOP-62 was 45.4 µM (inactive); with UACC-62, 18.2 µM (inactive); with M14, 60 µM (inactive); in the assay on K562, 31.1 µM (inactive); in the assay with T47D it was 44.6 µM (inactive); in the assay on SNB-75, 33.9 µM (inactive).
As for `COc1cc(C(c2ccc3c(c2)OCO3)C2SCCCS2)cc(OC)c1OC` (centres undefined), the GI50 in the assay with IGROV-1 is 2.49 µM (inactive); in the assay with SK-MEL-2, 77.4 µM (inactive); in the assay on NCI-H460 it was 1.58 µM (inactive); with OVCAR-8 it was 4.71 µM (inactive); in the assay with A498 it was 1.9 µM (inactive); with ACHN it was 5.52 µM (inactive). Besides, the GI50 is 1.49 µM (inactive) in the assay on CCRF-CEM; 3.14 µM (inactive) with OVCAR-3; 2.59 µM (inactive) in the assay on HCT-116; 4.22 µM (inactive) with A549; 3.09 µM (inactive) in the assay on KM12; 3.03 µM (inactive) with HOP-62. Besides, the GI50 is 2.75 µM (inactive) in the assay with UACC-62; 3.6 µM (inactive) in the assay with M14; 1.85 µM (inactive) in the assay on K562; 3.56 µM (inactive) with T47D; 2.21 µM (inactive) with SNB-75.
